Reference: PMC2806602 (The Journal of neuroscience : the official journal of the …, 2009)
Positions count from the first letter of the chain named.

Experiments:
GluRδ2^Lc D535A+D782A = target: T1, GluRδ2^Lc D535A+D782A (Rattus norvegicus, UniProt Q63226, A654T/D535A/D782A); test: Two-electrode voltage-clamp recordings in Xenopus oocytes, GluRδ2^Lc D535A+D782A; type: cell-based
T1 sequence (Q63226 24-1007 D535A/A654T/D782A): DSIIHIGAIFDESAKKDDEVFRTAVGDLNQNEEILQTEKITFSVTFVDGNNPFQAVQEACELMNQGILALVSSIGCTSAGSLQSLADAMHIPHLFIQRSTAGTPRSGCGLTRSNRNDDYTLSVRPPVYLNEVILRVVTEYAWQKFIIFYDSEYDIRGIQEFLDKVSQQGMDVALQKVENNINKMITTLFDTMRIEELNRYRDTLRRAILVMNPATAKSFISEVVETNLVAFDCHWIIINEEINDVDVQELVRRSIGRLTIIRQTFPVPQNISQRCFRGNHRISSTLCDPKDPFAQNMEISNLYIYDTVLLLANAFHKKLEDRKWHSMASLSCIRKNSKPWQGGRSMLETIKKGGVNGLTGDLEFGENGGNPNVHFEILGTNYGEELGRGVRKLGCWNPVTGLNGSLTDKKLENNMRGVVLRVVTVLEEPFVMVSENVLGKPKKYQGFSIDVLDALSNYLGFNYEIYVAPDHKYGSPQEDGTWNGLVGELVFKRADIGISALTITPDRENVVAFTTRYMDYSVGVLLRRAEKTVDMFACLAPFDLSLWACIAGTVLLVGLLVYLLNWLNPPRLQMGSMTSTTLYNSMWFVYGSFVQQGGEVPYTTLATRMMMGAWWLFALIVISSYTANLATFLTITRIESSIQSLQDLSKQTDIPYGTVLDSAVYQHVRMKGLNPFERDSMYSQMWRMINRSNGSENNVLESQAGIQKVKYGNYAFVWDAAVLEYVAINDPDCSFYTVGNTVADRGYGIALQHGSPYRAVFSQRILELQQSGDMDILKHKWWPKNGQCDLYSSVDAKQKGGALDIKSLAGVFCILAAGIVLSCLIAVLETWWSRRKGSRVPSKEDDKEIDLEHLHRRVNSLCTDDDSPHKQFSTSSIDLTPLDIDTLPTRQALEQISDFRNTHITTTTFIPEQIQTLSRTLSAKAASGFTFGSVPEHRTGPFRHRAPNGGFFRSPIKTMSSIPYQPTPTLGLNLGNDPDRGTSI

GluRδ2^Lc E531C+D782C = target: T2, GluRδ2^Lc E531C+D782C (Rattus norvegicus, UniProt Q63226, A654T/D782C/E531C); test: Two-electrode voltage-clamp recordings in Xenopus oocytes, GluRδ2^Lc E531C+D782C; type: cell-based
T2 sequence (Q63226 24-1007 E531C/A654T/D782C): T1 sequence (Q63226 24-1007 D535A/A654T/D782A) with E508C, A512D, A759C

SMILES	Ca^2+ potentiation (relative to baseline) (GluRδ2^Lc D535A+D782A; 3 mM Ca^2+, ± SEM) [fold]	Ca^2+ potentiation (relative to baseline) (GluRδ2^Lc E531C+D782C; 3 mM Ca^2+, ± SEM) [fold]	D-serine + 0 mM Ca^2+ nH (GluRδ2^Lc D535A+D782A; Hill slope, 0 mM Ca^2+)	D-serine + 3 mM Ca^2+ nH (GluRδ2^Lc D535A+D782A; Hill slope, 3 mM Ca^2+)	D-serine + 0 mM Ca^2+ nH (GluRδ2^Lc E531C+D782C; Hill slope, 0 mM Ca^2+)	D-serine + 3 mM Ca^2+ nH (GluRδ2^Lc E531C+D782C; Hill slope, 3 mM Ca^2+)
[Ca+2] [Ca^2+, calcium]	0.6 ± 0.01	0.9 ± 0.01	–	–	–	–
N[C@H](CO)C(=O)O [D-serine]	–	–	1.0	1.1	0.8	0.8
